This passage reports solubility results from PubChem BioAssay AID624323 (Sanford-Burnham Center for Chemical Genomics, 2012).

≈ marks a conversion by molar mass, not a printed value. Calls of active or inactive are those of the source. How the calls were made is not given here. Bounds are passed on as bounds.

The subject of one data set is aqueous buffer solubility, pH 5.0/6.2/7.4. Description: compound solubility, pH 5.0, 6.2, 7.4 – biophysical, set 2, ADME assay (AID 624323). The note with it: at 100 µM; stronger effect = higher value.
What is called solubility is the concentration that dissolves in the medium under given conditions. Turning to `COc1ccc(CSc2nc(C)cc(=O)[nH]2)cc1`, the solubility is more than 26 µg/mL.

Consider `O=S(=O)(NC1CCCCC1N1CCOCC1)c1ccc(Cl)cc1` (centres undefined), for which the solubility was 26.2 µg/mL (≈ 73 µM).

Turning to `O=C(O)c1ccccc1OCc1ccccc1Br`, the solubility was more than 30 µg/mL.

As for `CCCc1nc2c(=O)n(C)c(=O)nc-2n(C)n1`, the solubility was more than 23 µg/mL.

As for `O=c1[nH]c(SCc2ccc(Cl)cc2)nc2c1CCC2`, the solubility was 0.94 µg/mL (inactive) (≈ 3.21 µM).

`O=C1C2CC=CCC2C(=O)N1c1n[nH]c(-c2ccccc2)n1` (centres undefined): the solubility was more than 29 µg/mL.

Consider `CCCOc1ccc(-c2nc(OC)c3ccccc3n2)cc1`, for which the solubility is 0.02 µg/mL (inactive) (≈ 0.0679 µM).

As for `O=C(O)c1cccnc1SCCc1ccccc1`, the solubility is more than 26 µg/mL.

`N#Cc1ccccc1CSc1nc2ncc(Br)cc2[nH]1`: the solubility is 0.54 µg/mL (inactive) (≈ 1.56 µM).

For the compound `COc1ccc(C2c3c(ncn(CCN4CCOCC4)c3=N)Oc3ccc4ccccc4c32)cc1OC` (centres undefined), the solubility is 41.5 µg/mL (≈ 83.2 µM).

For `Cc1ccccc1N1CCN(c2ncnc3c2cnn3Cc2ccc(Cl)cc2)CC1`, the solubility was < 0.01 µg/mL (inactive).

Consider `Brc1ccc2c(c1)CN1CCCC1=N2`, for which the solubility was more than 25 µg/mL.

As to `O=C(O)CCC(NS(=O)(=O)c1ccc(-c2ccccc2)cc1)C(=O)O` (centres undefined), the solubility is more than 36 µg/mL.

In the case of `COC(=O)c1ccccc1NC(=O)c1ccc(F)cc1`, the solubility was 0.69 µg/mL (inactive) (≈ 2.53 µM).

As to `Cc1ccc(C)c(NS(=O)(=O)c2cc(C(=O)Nc3ccccc3-c3ccccc3)ccc2Cl)c1`, the solubility was 0.81 µg/mL (inactive) (≈ 1.65 µM).

Regarding `COc1cc(NC(=O)c2cc(C3CC3)on2)c(OC)cc1Cl`, the solubility is 0.06 µg/mL (inactive) (≈ 0.186 µM).

Turning to `Cc1ccc(C)c(OCCn2cc(C(=O)O)c3ccccc32)c1`, the solubility was 20.1 µg/mL (≈ 65 µM).

For `COc1ccc(CNCc2cccc3ccccc23)cc1`, the solubility was 26.2 µg/mL (≈ 94.5 µM).

Turning to `O=C(COc1ccccc1Br)NCCc1nc2ccccc2[nH]1`, the solubility was more than 37 µg/mL.

Consider `CN(C)c1oc(-c2ccc(OCc3ccc(Cl)cc3)cc2)nc1C#N`, for which the solubility is 0.08 µg/mL (inactive) (≈ 0.226 µM).

On to `c1ccc(-c2nnc(N3CCOCC3)nc2-c2ccccc2)cc1`, for which the solubility was 2.3 µg/mL (inactive) (≈ 7.22 µM).

Take `CCOC(=O)C(C)Oc1cccc2c(=O)n(CC(=O)Nc3ccc4c(c3)OCCO4)ccc12` (centres undefined): the solubility was 0.36 µg/mL (inactive) (≈ 0.796 µM).

With `Cc1ccc(-n2c(N)c(C#N)c(-c3ccccc3)c(C#N)c2=O)cc1`, the solubility is 0.84 µg/mL (inactive) (≈ 2.57 µM).

Consider `Cc1nc(SCc2nc3ccccc3[nH]2)c2oc3ccccc3c2n1`, for which the solubility is 0.11 µg/mL (inactive) (≈ 0.318 µM).

For `Brc1cc2c(cc1C1Nc3ccccc3C3C=CCC31)OCO2` (centres undefined), the solubility was < 0.01 µg/mL (inactive).

In the case of `O=C1CCCC2=C1C1(CCCC1)N=C(Nc1nc3ccccc3o1)N2`, the solubility is 0.07 µg/mL (inactive) (≈ 0.208 µM).

`O=c1[nH]c2c(s1)C(c1cccnc1)C1C3CCC(C3)C1S2` (centres undefined): the solubility is 21.7 µg/mL (≈ 68.6 µM).

In the case of `COc1ccc(Sc2ccc(NC(=O)c3ccccc3Cl)cc2C#N)cc1`, the solubility was 0 µg/mL (inactive).

On to `Cc1ccc(NC(=O)CCC(=O)N/N=C/c2ccc([N+](=O)[O-])o2)cc1C`, for which the solubility was 0.29 µg/mL (inactive) (≈ 0.809 µM).

Take `O=C(CSc1cccc2cccnc12)N1CCCC1`: the solubility was more than 27 µg/mL.

For `CCCN1CNc2c(c(=O)[nH]c(=S)n2CCc2ccc(OC)c(OC)c2)C1`, the solubility is more than 39 µg/mL.

For `O=S1(=O)Nc2c(ccc3cccnc23)-c2ccccc21`, the solubility was > 2.8 µg/mL (inactive).

As to `COc1ccc(S(=O)(=O)n2nc(OC(=O)c3ccccc3)cc2N)cc1`, the solubility was 14.9 µg/mL (≈ 39.9 µM).

With `O=C(CCNS(=O)(=O)c1cccc2nsnc12)N1CCN(c2ccccn2)CC1`, the solubility is more than 43 µg/mL.

With `CC(=O)c1ccc(N2CCN(S(=O)(=O)c3ccc4c(c3)CC(=O)N4)CC2)cc1`, the solubility is 3.5 µg/mL (inactive) (≈ 8.76 µM).

Take `CCCC(=O)Nc1cccc(NC(=O)c2ccccc2Br)c1`: the solubility is more than 36 µg/mL.

`Cc1ccc(S(=O)(=O)NCc2ccc(C(=O)NCCN(Cc3ccccc3)C(C)C)cc2)cc1`: the solubility was 19.6 µg/mL (≈ 40.9 µM).

Regarding `COc1ccc(OC)c(S(=O)(=O)Nc2cnc3ccccc3c2)c1`, the solubility was 25.8 µg/mL (≈ 74.9 µM).

Regarding `COc1ccccc1N(/N=C1\Sc2ccccc2C1=O)C(C)=O`, the solubility is 2.4 µg/mL (inactive) (≈ 7.35 µM).

As for `CCOc1ccc(NC(=S)N2CCC(C(O)(c3ccccc3)c3ccccc3)CC2)cc1`, the solubility is 0.37 µg/mL (inactive) (≈ 0.828 µM).

`Cc1ccc(N2CCN(S(=O)(=O)N3CCCCC3)CC2)c(C)c1`: the solubility is 1.6 µg/mL (inactive) (≈ 4.74 µM).

Consider `COc1ccc(S(=O)(=O)N2CCN(S(=O)(=O)c3ccc4c(c3)OCCO4)CC2)cc1`, for which the solubility is < 0.1 µg/mL (inactive).

Regarding `CCN1CCN(c2nc3ccccc3nc2C(C#N)C(=O)OC2CCCCC2)CC1` (centres undefined), the solubility is 25.8 µg/mL (≈ 63.3 µM).

Consider `CCc1oc2ccccc2c1C(=O)c1cc(Br)c(O)c(Br)c1`, for which the solubility was more than 42 µg/mL.

With `O=c1c(O)c(-c2cc(O)c(O)c(O)c2)oc2cc(O)cc(O)c12`, the solubility is 1.7 µg/mL (inactive) (≈ 5.34 µM).

For `CC1CCCN(C(C(=O)Nc2ccc3c(c2)OCCO3)c2ccccc2)C1` (centres undefined), the solubility was 1.7 µg/mL (inactive) (≈ 4.64 µM).

With `Cc1cc2c(s1)c1cnn(Cc3ccccc3F)c(=O)c1n2C`, the solubility was 0.11 µg/mL (inactive) (≈ 0.336 µM).

With `O=C(COC(=O)C12CC3CC(CC(C3)C1)C2)NCc1ccco1`, the solubility is 2.6 µg/mL (inactive) (≈ 8.19 µM).

For `Cc1ccc(S(=O)(=O)C(c2ccccc2)c2c(C)noc2C)cc1` (centres undefined), the solubility is 16.5 µg/mL (≈ 48.3 µM).

For the compound `CN1CSC(=S)N(C)C1`, the solubility was more than 16 µg/mL.

With `COc1nc(-c2ccccc2)nnc1-c1ccccc1`, the solubility was 0.38 µg/mL (inactive) (≈ 1.44 µM).

On to `c1ccc2c(Nc3nnc(-c4ccncc4)s3)cccc2c1`, for which the solubility is 3.5 µg/mL (inactive) (≈ 11.5 µM).

Regarding `Cc1cc(C)n(-c2nc(NCCCO)c3c4c(sc3n2)CCCC4)n1`, the solubility is 20.7 µg/mL (≈ 57.9 µM).

Still in this data set, the particulars now being: measured here: solubility at pH 5.0; at 100 µM; stronger effect = higher value.
With `COc1ccc(CSc2nc(C)cc(=O)[nH]2)cc1`, the solubility is more than 26 µg/mL.

Take `O=S(=O)(NC1CCCCC1N1CCOCC1)c1ccc(Cl)cc1` (centres undefined): the solubility was more than 36 µg/mL.

On to `O=C(O)c1ccccc1OCc1ccccc1Br`, for which the solubility is more than 30 µg/mL.

In the case of `CCCc1nc2c(=O)n(C)c(=O)nc-2n(C)n1`, the solubility is more than 23 µg/mL.

For `O=c1[nH]c(SCc2ccc(Cl)cc2)nc2c1CCC2`, the solubility came out at 0.45 µg/mL (≈ 1.54 µM).

As to `O=C1C2CC=CCC2C(=O)N1c1n[nH]c(-c2ccccc2)n1` (centres undefined), the solubility was 16 µg/mL (≈ 54.4 µM).

As to `CCCOc1ccc(-c2nc(OC)c3ccccc3n2)cc1`, the solubility stood at 0.05 µg/mL (≈ 0.17 µM).

`O=C(O)c1cccnc1SCCc1ccccc1`: the solubility was more than 26 µg/mL.

Compound `N#Cc1ccccc1CSc1nc2ncc(Br)cc2[nH]1` had a solubility of 0.42 µg/mL (≈ 1.22 µM).

`COc1ccc(C2c3c(ncn(CCN4CCOCC4)c3=N)Oc3ccc4ccccc4c32)cc1OC` (centres undefined) returned a solubility of more than 49 µg/mL.

In the case of `Cc1ccccc1N1CCN(c2ncnc3c2cnn3Cc2ccc(Cl)cc2)CC1`, the solubility worked out at 0.03 µg/mL (≈ 0.0716 µM).

`Brc1ccc2c(c1)CN1CCCC1=N2` gave a solubility of more than 25 µg/mL.

Regarding `O=C(O)CCC(NS(=O)(=O)c1ccc(-c2ccccc2)cc1)C(=O)O` (centres undefined), the solubility is more than 36 µg/mL.

In turn, `COC(=O)c1ccccc1NC(=O)c1ccc(F)cc1` registered a solubility of 0.85 µg/mL (≈ 3.11 µM).

For `Cc1ccc(C)c(NS(=O)(=O)c2cc(C(=O)Nc3ccccc3-c3ccccc3)ccc2Cl)c1`, the solubility is less than 0.1 µg/mL.

In turn, `COc1cc(NC(=O)c2cc(C3CC3)on2)c(OC)cc1Cl` registered a solubility of less than 0.01 µg/mL.

In turn, `Cc1ccc(C)c(OCCn2cc(C(=O)O)c3ccccc32)c1` gave a solubility of 0.19 µg/mL (≈ 0.614 µM).

For the compound `COc1ccc(CNCc2cccc3ccccc23)cc1`, the solubility was more than 36 µg/mL.

With `O=C(COc1ccccc1Br)NCCc1nc2ccccc2[nH]1`, the solubility was more than 37 µg/mL.

Consider `CN(C)c1oc(-c2ccc(OCc3ccc(Cl)cc3)cc2)nc1C#N`, for which the solubility came out at 0.17 µg/mL (≈ 0.48 µM).

In the case of `c1ccc(-c2nnc(N3CCOCC3)nc2-c2ccccc2)cc1`, the solubility is 2 µg/mL (≈ 6.28 µM).

The compound `CCOC(=O)C(C)Oc1cccc2c(=O)n(CC(=O)Nc3ccc4c(c3)OCCO4)ccc12` (centres undefined) registered a solubility of 0.27 µg/mL (≈ 0.597 µM).

As for `Cc1ccc(-n2c(N)c(C#N)c(-c3ccccc3)c(C#N)c2=O)cc1`, the solubility was found to be 0.79 µg/mL (≈ 2.42 µM).

As for `Cc1nc(SCc2nc3ccccc3[nH]2)c2oc3ccccc3c2n1`, the solubility amounted to 0.26 µg/mL (≈ 0.751 µM).

`Brc1cc2c(cc1C1Nc3ccccc3C3C=CCC31)OCO2` (centres undefined) returned a solubility of less than 0.01 µg/mL.

Take `O=C1CCCC2=C1C1(CCCC1)N=C(Nc1nc3ccccc3o1)N2`: the solubility was determined as 0.07 µg/mL (≈ 0.208 µM).
